Test results reported in patent US5468760A, “Aralkyl-N-hydroxyureas as inhibitors of 5-lipoxygenase and oxidation of low density lipoprotein” (American Home Products Corporation, priority 1993, dated 1995).

Assays:
Lipoxygenase = test: Ex-Vivo Measurement of Lipoxygenase Inhibition in Orally Dosed Rats (LTB4); design: species or system rat (male Sprague Dawley); conditions: p.o.
Procedure: 2. Ex-Vivo Measurement of Lipoxygenase Inhibition in Orally Dosed Rats
Male Sprague Dawley rats (Charles River) weighing between 180 g and 200 g were dosed orally with an invention compound (1-25 mg/kg, po) suspended in 0.5% Tween 80®. After an interval of 3 or 6 hours, the rats were anesthetized with metofane (n=4/group) and blood collected in heparinized tubes. White blood cell counts and differentials were made. One ml of blood from each animal was placed in a 5 ml plastic tube in a shaker bath at 37° C. A23187 at a final concentration of 10 μM was added to the blood and the blood vortexed and incubated for 15 min at […] with gentle shaking. Incubation was terminated by vortexing sample and centrifuging immediately at 1200 xG for 15 min at 4° C. The plasma was transferred to 15 ml plastic tubes each containing 8 ml of methanol to precipitate protein followed by vortexing. The samples were stored at -70 ° C. overnight and the next day the samples were centrifuged at 800 xG for 15 min to pellet the precipitate. The samples were dried in a Savant SpeedVac Concentrator Model SVC 200H and reconstituted to the original volume with cold RIA or ELISA buffer. The reconstituted samples were stored at -70° C. until assayed. The assay for LTB4 was performed according to the directions of the [^3 H]RIA kit or ELISA kit (Seragen). The total metabolite level in 1 ml of blood is calculated and reported as ng/10^6 neutrophils. Significance is determined by a one-way analysis of variance with LSD comparisons to control (p≤0.05).

LTB4 Synthesis = test: Reverse Passive Arthus Reaction (pleurisy), LTB4 in pleural exudate; type: in vivo, rat (male Lewis); conditions: p.o.
Procedure: 3. Reverse Passive Arthus Reaction
A reverse passive Arthus reaction is induced in the pleural cavity of male Lewis rats (150-200 g; fasted overnight prior to use) by the intravenous administration of bovine serum albumin (BSA; 4 mg/0.2 ml) followed 30 minutes later by the injection of rabbit anti-BSA (1 mg/0.2 ml; lyophilized IgG fraction; Organon Teknika, West Chester, Pa.) into the right pleural space under halothane anesthesia. Drugs or vehicle (0.5% Tween-80) control are administered orally in a volume of 1 ml/100 g body weight at 1 hour prior to the anti-BSA. Animals are sacrificed at either the time of peak eicosanoid production (i.e. 5 minutes after anti-BSA for immunoreactive TxB2, 10 minutes for immunoreactive LTB4, 20 minutes for immunoreactive LTC4) or at the time of peak neutrophil infiltration (4 hours after anti-BSA) by CO2 inhalation. The pleural cavity is then exposed., the fluid exudate removed by gentle vacuum aspiration and the volume of exudate is recorded. For the determination of cellular infiltration, the pleural cavity is rinsed with 3 ml of 0.1% EDTA in sterile saline, and the recovered wash is pooled with the exudate. Cell number is determined on a model ZBI Coulter counter. For determination of eicosanoid production, undiluted pleural exudate is microfuged and the supernatant is extracted with ethanol (8-10 times volume). Extracts are either stored at -20° C., or are evaporated to dryness under a stream of N2 and reconstituted in radioimmunoassay (RIA) buffer.
Eicosanoids are quantitated by RIA according to the procedure specified by the RIA kit manufacturer (Advanced Magnetics, Cambridge, Mass.). Briefly, 100 μl of ^3 H-labeled eicosanoid and 100 μl of specific antibody are sequentially added to 100 μl of extracted pleural exudate in BGG-phosphate buffer which contains 0.01M phosphate, 0.1% bovine gamma globulin and 0.1% sodium azide at pH 7.0. Antibody-bound eicosanoid is separated from unbound eicosanoid by the addition of 750 μl of dextran (0.4%)-coated charcoal (Norit A) containing 0.1% sodium azide. The mixture is centrifuged at 2000 RPM at 5° C. for 15 minutes to pellet the charcoal and adsorbed unbound eicosanoid. Antibody-bound labeled eicosanoid is quantitated by counting in a liquid scintillation counter, and is correlated to concentration by a standard curve.

[1] = tested on: LT-dependent bronchoconstriction; test: Inhibition of Bronchoconstriction in Guinea Pigs Induced by Exogenously Administered Antigen; type: in vivo, guinea pig (male); conditions: Cavia porcellus, 5 min, 5 min post-antigen challenge; for inhibition in vivo at 10 mg/kg: iv, 10 mg/kg i.v.
Procedure: 4. Inhibition of Brochoconstriction in Guinea Pigs Induced by Exogenously Administered Antigen
Male guinea pigs (Charles River, Wilmington, Mass.) were sensitized 3-4 weeks prior to antigen challenge by administration of 2 i.m. injections of ovalbumin, 1 into each hind limb (35 mg total). Sensitized animals (500-600 g) were fasted overnight prior to experimentation. Conscious animals were then dosed p.o. with drug or vehicle alone (0.5% Tween 80 in H2 O) at the indicated times prior to antigen challenge, or anesthetized animals were dosed i.v. with drug or vehicle alone (DMSO) 5 min prior to antigen challenge. Animals were anesthetized by urethane (2.8 g/kg i.p.). A carotid artery and jugular vein were cannulated to allow for the monitoring of blood pressure and the administration of drugs, respectively. The trachea was then cannulated and connected to a Harvard Apparatus rodent ventilator (S. Natick, Mass.). Spontaneous respiration was abolished by the administration of succinylcholine (2.5 mg/kg i.v.). The animals were then ventilated with room air at a rate of 65 breaths per min. Airway inflation pressure was measured using a Statham pressure transducer (Gould Instruments, Cleveland, Ohio) connected to the tracheal cannula via a side-arm and recorded on a Grass Instruments recorder (Quincy, Mass.). The tidal volume (approximately 10 cc/kg) was adjusted to give a baseline inflation pressure of 8-10 cm H2 O at end inspiration. Animals were then allowed 20 min to stabilize.
Following the stabilization period, animals were given i.v. injections of pyrilamine (5 mg/kg), propranolol (0.1 mg/kg) and indomethacin (10 mg/kg) at 15, 10 and 5 min, respectively, prior to antigen challenge. This pretreatment results in an LT-dependent bronchoconstriction following antigen challenge, which was accomplished by i.v. administration of ovalbumin (10 mg/kg). Only one bronchoconstriction per animal was induced. End-inspiratory inflation pressure (in cm H2 O over baseline) was measured at 5 min post-antigen challenge. A mean value and standard error for the % inhibition of control bronchoconstriction in each drug-treated group was then calculated.

[2] = 10 mg/kg, pretreatment period 6 hr

Compound | % Inhibition of LTB4 (Lipoxygenase; 25 mg/kg, pretreatment period 3 hr) [%] | % Inhibition LTB4 Synthesis (LTB4 Synthesis; 25 mg/kg) [%] | % Inhibition of LTB4 (Lipoxygenase; [2]) [%] | % Inhibition LTB4 Synthesis (LTB4 Synthesis; 10 mg/kg) [%] | inhibition in vivo at 25 mg/kg ([1]; po, 25 mg/kg p.o.) [%] | inhibition in vivo at 10 mg/kg [1] [%] | % Inhibition of LTB4 (Lipoxygenase; 5 mg/kg, pretreatment period 6 hr) [%]
Cc1oc(-c2ccccc2)nc1COc1cccc(CN(O)C(N)=O)c1 [Example 1, 1-Hydroxy-1-[3-(5-methyl-2-phenyl-oxazol-4-ylmethoxy)-benzyl]-urea] | 86 | 79 | – | – | – | – | –
NC(=O)N(O)Cc1cccc(OCc2csc(-c3ccccc3)n2)c1 [Example 5, 1-Hydroxy-1-[3-(2-phenyl-thiazol-4-ylmethoxy)-benzyl]-urea] | – | – | 80 | 43 | 29 | – | –
NC(=O)N(O)Cc1cccc(OCc2csc(-c3ccc(Cl)cc3)n2)c1 [Example 6, 1-Hydroxy-1-[3-[2-(4-chloro-phenyl)-thiazol-4-ylmethoxy]-benzyl]-urea] | – | – | 67 | – | – | 70 | –
Cc1oc(-c2ccc(F)cc2)nc1COc1cccc(CN(O)C(N)=O)c1 [Example 9, 1-[3-[2-(4-fluorophenyl)-5-methyl-oxazol-4-ylmethoxy]-benzyl]-1-hydroxy-urea] | – | – | 50 | 27 | – | 65 | –
Cc1oc(-c2ccccc2)nc1COc1cc(F)cc(CN(O)C(N)=O)c1 [Example 13, 1-[3-Fluoro-5-(5-methyl-2-phenyl-oxazol-4-ylmethoxy)-benzyl]-1-hydroxy-urea] | – | – | – | 17 | – | 29 | 52
